Results: the NIST ThermoML archive (doi:10.1016/j.fluid.2009.09.005)
± gives the expanded uncertainty stated by the source.

Legend:
[1] = wn = mass fraction of the nth substance listed; conditions: Capillary rise
[2] = Capillary rise

With `FC(F)C(F)(F)F` [pentafluoroethane] + CC(F)F the surface tension liquid-gas ([1]; 243.08 K, w1 = 0.2019) was 16.5 ± 0.4 mN/m, the surface tension liquid-gas ([1]; 243.16 K, w1 = 0.097) was 17 ± 0.4 mN/m and the surface tension liquid-gas ([1]; 243.22 K, w1 = 0.2996) was 15.6 ± 0.4 mN/m. For the same compound, the surface tension liquid-gas ([1]; 248.09 K, w1 = 0.2019) was 15.8 ± 0.4 mN/m, the surface tension liquid-gas ([1]; 248.12 K, w1 = 0.2996) was 15 ± 0.4 mN/m and the surface tension liquid-gas ([1]; 248.13 K, w1 = 0.097) was 16.2 ± 0.4 mN/m. For the same compound, the surface tension liquid-gas ([1]; 253.12 K, w1 = 0.2019) was 15.1 ± 0.4 mN/m, the surface tension liquid-gas ([1]; 253.13 K, w1 = 0.2996) was 14.3 ± 0.4 mN/m and the surface tension liquid-gas ([1]; 253.55 K, w1 = 0.097) was 15.3 ± 0.4 mN/m. It also gave a surface tension liquid-gas ([1]; 258.11 K, w1 = 0.097) of 14.6 ± 0.4 mN/m, a surface tension liquid-gas ([1]; 258.16 K, w1 = 0.2019) of 14.4 ± 0.4 mN/m and a surface tension liquid-gas ([1]; 258.16 K, w1 = 0.2996) of 13.7 ± 0.4 mN/m. For the same compound, the surface tension liquid-gas ([1]; 263.06 K, w1 = 0.097) was 13.9 ± 0.4 mN/m, the surface tension liquid-gas ([1]; 263.17 K, w1 = 0.2996) was 13 ± 0.4 mN/m and the surface tension liquid-gas ([1]; 263.19 K, w1 = 0.2019) was 13.5 ± 0.4 mN/m. For the same compound, the surface tension liquid-gas ([1]; 268.12 K, w1 = 0.097) was 13.3 ± 0.4 mN/m, the surface tension liquid-gas ([1]; 268.17 K, w1 = 0.2019) was 12.9 ± 0.4 mN/m and the surface tension liquid-gas ([1]; 268.18 K, w1 = 0.2996) was 12.2 ± 0.4 mN/m. For the same compound, the surface tension liquid-gas ([1]; 273.18 K, w1 = 0.097) was 12.5 ± 0.4 mN/m, the surface tension liquid-gas ([1]; 273.18 K, w1 = 0.2996) was 11.4 ± 0.4 mN/m and the surface tension liquid-gas ([1]; 273.19 K, w1 = 0.2019) was 12.2 ± 0.4 mN/m. The surface tension liquid-gas ([1]; 278.17 K, w1 = 0.2996) was 10.6 ± 0.4 mN/m, the surface tension liquid-gas ([1]; 278.18 K, w1 = 0.097) was 11.8 ± 0.4 mN/m and the surface tension liquid-gas ([1]; 278.42 K, w1 = 0.2019) was 11.4 ± 0.4 mN/m. It also gave a surface tension liquid-gas ([1]; 283.13 K, w1 = 0.097) of 11.2 ± 0.4 mN/m, a surface tension liquid-gas ([1]; 283.15 K, w1 = 0.2019) of 10.6 ± 0.4 mN/m and a surface tension liquid-gas ([1]; 283.17 K, w1 = 0.2996) of 10.1 ± 0.4 mN/m. The surface tension liquid-gas ([1]; 288.16 K, w1 = 0.2019) was 9.9 ± 0.4 mN/m, the surface tension liquid-gas ([1]; 288.17 K, w1 = 0.097) was 10.6 ± 0.4 mN/m and the surface tension liquid-gas ([1]; 288.18 K, w1 = 0.2996) was 9.5 ± 0.4 mN/m. The surface tension liquid-gas ([1]; 293.14 K, w1 = 0.2019) was 9.4 ± 0.4 mN/m, the surface tension liquid-gas ([1]; 293.17 K, w1 = 0.097) was 9.8 ± 0.4 mN/m and the surface tension liquid-gas ([1]; 293.18 K, w1 = 0.2996) was 8.7 ± 0.4 mN/m. The surface tension liquid-gas ([1]; 298.08 K, w1 = 0.2019) was 8.8 ± 0.4 mN/m, the surface tension liquid-gas ([1]; 298.1 K, w1 = 0.097) was 9.2 ± 0.4 mN/m and the surface tension liquid-gas ([1]; 298.11 K, w1 = 0.2996) was 8 ± 0.4 mN/m. The surface tension liquid-gas ([1]; 303.13 K, w1 = 0.2019) was 8 ± 0.4 mN/m, the surface tension liquid-gas ([1]; 303.17 K, w1 = 0.097) was 8.5 ± 0.4 mN/m and the surface tension liquid-gas ([1]; 303.18 K, w1 = 0.2996) was 7.4 ± 0.4 mN/m. It also gave a surface tension liquid-gas ([1]; 308.1 K, w1 = 0.097) of 7.9 ± 0.4 mN/m, a surface tension liquid-gas ([1]; 308.1 K, w1 = 0.2019) of 7.4 ± 0.4 mN/m and a surface tension liquid-gas ([1]; 308.12 K, w1 = 0.2996) of 6.7 ± 0.4 mN/m. For the same compound, the surface tension liquid-gas ([1]; 313.11 K, w1 = 0.2019) was 6.7 ± 0.4 mN/m, the surface tension liquid-gas ([1]; 313.16 K, w1 = 0.097) was 7.2 ± 0.4 mN/m and the surface tension liquid-gas ([1]; 313.19 K, w1 = 0.2996) was 6.1 ± 0.4 mN/m. For the same compound, the surface tension liquid-gas ([1]; 318.11 K, w1 = 0.2019) was 6.1 ± 0.4 mN/m, the surface tension liquid-gas ([1]; 318.12 K, w1 = 0.097) was 6.5 ± 0.4 mN/m and the surface tension liquid-gas ([1]; 318.16 K, w1 = 0.2996) was 5.5 ± 0.4 mN/m. For the same compound, the surface tension liquid-gas ([1]; 323.14 K, w1 = 0.2019) was 5.4 ± 0.4 mN/m, the surface tension liquid-gas ([1]; 323.16 K, w1 = 0.097) was 5.8 ± 0.4 mN/m and the surface tension liquid-gas ([1]; 323.17 K, w1 = 0.2996) was 5 ± 0.4 mN/m. For the same compound, the surface tension liquid-gas ([1]; 328.1 K, w1 = 0.2019) was 4.8 ± 0.4 mN/m, the surface tension liquid-gas ([1]; 328.11 K, w1 = 0.097) was 5.2 ± 0.4 mN/m and the surface tension liquid-gas ([1]; 328.16 K, w1 = 0.2996) was 4.3 ± 0.4 mN/m.
Work on `CC(C)C` [2-methylpropane] yielded a surface tension liquid-gas ([2]; 313.17 K) of 8.28 ± 0.45 mN/m, a surface tension liquid-gas ([2]; 318.13 K) of 7.704 ± 0.45 mN/m and a surface tension liquid-gas ([2]; 323.16 K) of 7.182 ± 0.44 mN/m. It also gave a surface tension liquid-gas ([2]; 328.12 K) of 6.691 ± 0.44 mN/m and a surface tension liquid-gas ([2]; 328.13 K) of 6.669 ± 0.43 mN/m.
`CC(F)F` [1,1-difluoroethane] gave a surface tension liquid-gas ([2]; 298.18 K) of 9.747 ± 0.4 mN/m, a surface tension liquid-gas ([2]; 303.23 K) of 9.062 ± 0.4 mN/m and a surface tension liquid-gas ([2]; 308.19 K) of 8.505 ± 0.4 mN/m. The surface tension liquid-gas ([2]; 313.13 K) was 7.731 ± 0.4 mN/m.
